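Assay format: 96-well plates, 48-hour exposure. Abbreviation: GI50, concentration required for 50% inhibition of growth. TGI marks complete inhibition of growth.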
Columns and labels:
Test in all cases: NCI anticancer screen, dose series, 48 h
786-0 renal = test system: 786-0 renal
A498 renal = test system: A498 renal
A549 NSCLC = test system: A549 NSCLC
ACHN renal = test system: ACHN renal
BT-549 breast = test system: BT-549 breast
CAKI-1 renal = test system: CAKI-1 renal
CCRF-CEM leukemia = test system: CCRF-CEM leukemia
COLO 205 colon = test system: COLO 205 colon
DU-145 prostate = test system: DU-145 prostate
HCC-2998 colon = test system: HCC-2998 colon
HCT-116 colon = test system: HCT-116 colon
HCT-15 colon = test system: HCT-15 colon
HL-60(TB) leukemia = test system: HL-60(TB) leukemia
HOP-62 NSCLC = test system: HOP-62 NSCLC
HOP-92 NSCLC = test system: HOP-92 NSCLC
HT29 colon = test system: HT29 colon
IGROV1 ovarian = test system: IGROV1 ovarian
K-562 leukemia = test system: K-562 leukemia
KM12 colon = test system: KM12 colon
LOX IMVI melanoma = test system: LOX IMVI melanoma
M14 melanoma = test system: M14 melanoma
MALME-3M melanoma = test system: MALME-3M melanoma
MCF7 breast = test system: MCF7 breast
MDA-MB-231 breast = test system: MDA-MB-231 breast
MDA-MB-435 = test system: MDA-MB-435
MOLT-4 leukemia = test system: MOLT-4 leukemia
NCI-H226 lung = test system: NCI-H226 lung
NCI-H23 lung = test system: NCI-H23 lung
NCI-H460 lung = test system: NCI-H460 lung
NCI-H522 lung = test system: NCI-H522 lung
NCI/ADR-RES ovarian = test system: NCI/ADR-RES ovarian
OVCAR-3 ovarian = test system: OVCAR-3 ovarian
OVCAR-4 ovarian = test system: OVCAR-4 ovarian
OVCAR-5 ovarian = test system: OVCAR-5 ovarian
OVCAR-8 ovarian = test system: OVCAR-8 ovarian
PC-3 prostate = test system: PC-3 prostate
RPMI-8226 leukemia = test system: RPMI-8226 leukemia
RXF 393 renal = test system: RXF 393 renal
SF-268 CNS = test system: SF-268 CNS
SF-295 CNS = test system: SF-295 CNS
SF-539 CNS = test system: SF-539 CNS
SK-MEL-2 melanoma = test system: SK-MEL-2 melanoma
SK-MEL-28 melanoma = test system: SK-MEL-28 melanoma
SK-MEL-5 melanoma = test system: SK-MEL-5 melanoma
SK-OV-3 ovarian = test system: SK-OV-3 ovarian
SN12C renal = test system: SN12C renal
SNB-19 CNS = test system: SNB-19 CNS
SNB-75 CNS = test system: SNB-75 CNS
SR leukemia = test system: SR leukemia
SW-620 colon = test system: SW-620 colon
T-47D breast = test system: T-47D breast
U251 CNS = test system: U251 CNS
UACC-257 melanoma = test system: UACC-257 melanoma
UACC-62 melanoma = test system: UACC-62 melanoma
UO-31 renal = test system: UO-31 renal

SMILES: CCCCCN(CCCCC)CCC[C@@H](C)[C@H]1CC[C@H]2[C@@H]3[C@H](OCCCN)C[C@@H]4C[C@H](OCCCN)CC[C@]4(C)[C@H]3C[C@H](OCCCN)[C@]12C
- GI50 (786-0 renal): 8.26 µM
- TGI (786-0 renal): 24 µM
- GI50 (A498 renal): 10.2 µM
- TGI (A498 renal): 60.7 µM
- GI50 (A549 NSCLC): 5 µM
- TGI (A549 NSCLC): 21.9 µM
- GI50 (ACHN renal): 8.8 µM
- TGI (ACHN renal): 35 µM
- GI50 (BT-549 breast): 3.27 µM
- TGI (BT-549 breast): 8.37 µM
- GI50 (CAKI-1 renal): 40.7 µM
- TGI (CAKI-1 renal): > 100 µM
- GI50 (CCRF-CEM leukemia): 4.47 µM
- TGI (CCRF-CEM leukemia): 20.5 µM
- GI50 (COLO 205 colon): 5.89 µM
- TGI (COLO 205 colon): 22.8 µM
- GI50 (DU-145 prostate): 11.1 µM
- TGI (DU-145 prostate): 23.6 µM
- GI50 (HCC-2998 colon): 7.98 µM
- TGI (HCC-2998 colon): 24.9 µM
- GI50 (HCT-116 colon): 2400 nM
- TGI (HCT-116 colon): 14.7 µM
- GI50 (HCT-15 colon): 15.4 µM
- TGI (HCT-15 colon): > 100 µM
- GI50 (HL-60(TB) leukemia): 2140 nM
- TGI (HL-60(TB) leukemia): 5.81 µM
- GI50 (HOP-62 NSCLC): 5.23 µM
- TGI (HOP-62 NSCLC): 23.5 µM
- GI50 (HOP-92 NSCLC): 680 nM
- TGI (HOP-92 NSCLC): 6.45 µM
- GI50 (HT29 colon): 2650 nM
- TGI (HT29 colon): 15.3 µM
- GI50 (IGROV1 ovarian): 2720 nM
- TGI (IGROV1 ovarian): 15 µM
- GI50 (K-562 leukemia): 1840 nM
- TGI (K-562 leukemia): 4.33 µM
- GI50 (KM12 colon): 3.59 µM
- TGI (KM12 colon): 17 µM
- GI50 (LOX IMVI melanoma): 2160 nM
- TGI (LOX IMVI melanoma): 10.2 µM
- GI50 (M14 melanoma): 6.03 µM
- TGI (M14 melanoma): 22.5 µM
- GI50 (MALME-3M melanoma): 4.8 µM
- TGI (MALME-3M melanoma): 17.7 µM
- GI50 (MCF7 breast): 14.5 µM
- TGI (MCF7 breast): 34.7 µM
- GI50 (MDA-MB-231 breast): 4.41 µM
- TGI (MDA-MB-231 breast): 19.7 µM
- GI50 (MDA-MB-435): 1980 nM
- TGI (MDA-MB-435): 4.93 µM
- GI50 (MOLT-4 leukemia): 3.85 µM
- TGI (MOLT-4 leukemia): 14.4 µM
- GI50 (NCI-H226 lung): 5.11 µM
- TGI (NCI-H226 lung): 24.8 µM
- GI50 (NCI-H23 lung): 4.36 µM
- TGI (NCI-H23 lung): 20.6 µM
- GI50 (NCI-H460 lung): 2790 nM
- TGI (NCI-H460 lung): 17.3 µM
- GI50 (NCI-H522 lung): 2980 nM
- TGI (NCI-H522 lung): 12.3 µM
- GI50 (NCI/ADR-RES ovarian): 12.1 µM
- TGI (NCI/ADR-RES ovarian): 37.7 µM
- GI50 (OVCAR-3 ovarian): 17 µM
- TGI (OVCAR-3 ovarian): 36.1 µM
- GI50 (OVCAR-4 ovarian): 14.3 µM
- TGI (OVCAR-4 ovarian): 32.6 µM
- GI50 (OVCAR-5 ovarian): 10.3 µM
- TGI (OVCAR-5 ovarian): 23.4 µM
- GI50 (OVCAR-8 ovarian): 7.39 µM
- TGI (OVCAR-8 ovarian): 22.9 µM
- GI50 (PC-3 prostate): 11.6 µM
- TGI (PC-3 prostate): 24.8 µM
- GI50 (RPMI-8226 leukemia): 1840 nM
- TGI (RPMI-8226 leukemia): 4.71 µM
- GI50 (RXF 393 renal): 11.9 µM
- TGI (RXF 393 renal): 32.7 µM
- GI50 (SF-268 CNS): 13.6 µM
- TGI (SF-268 CNS): 31.5 µM
- GI50 (SF-295 CNS): 3.03 µM
- TGI (SF-295 CNS): 21.8 µM
- GI50 (SF-539 CNS): 1940 nM
- TGI (SF-539 CNS): 4.3 µM
- GI50 (SK-MEL-2 melanoma): 15.1 µM
- TGI (SK-MEL-2 melanoma): 31.3 µM
- GI50 (SK-MEL-28 melanoma): 2460 nM
- TGI (SK-MEL-28 melanoma): 12.5 µM
- GI50 (SK-MEL-5 melanoma): 3.85 µM
- TGI (SK-MEL-5 melanoma): 16.2 µM
- GI50 (SK-OV-3 ovarian): 15.9 µM
- TGI (SK-OV-3 ovarian): 34.9 µM
- GI50 (SN12C renal): 4.33 µM
- TGI (SN12C renal): 18.8 µM
- GI50 (SNB-19 CNS): 7.9 µM
- TGI (SNB-19 CNS): 24.3 µM
- GI50 (SNB-75 CNS): 7.52 µM
- TGI (SNB-75 CNS): 22.8 µM
- GI50 (SR leukemia): 2380 nM
- TGI (SR leukemia): 9.28 µM
- GI50 (SW-620 colon): 4.79 µM
- TGI (SW-620 colon): 20.2 µM
- GI50 (T-47D breast): 10 µM
- TGI (T-47D breast): 30.3 µM
- GI50 (U251 CNS): 4.53 µM
- TGI (U251 CNS): 18.4 µM
- GI50 (UACC-257 melanoma): 13.5 µM
- TGI (UACC-257 melanoma): 28.6 µM
- GI50 (UACC-62 melanoma): 1560 nM
- TGI (UACC-62 melanoma): 6.41 µM
- GI50 (UO-31 renal): 14.1 µM
- TGI (UO-31 renal): 51.7 µM

Reference: PubChem BioAssay (NCI)
